Experimental data as given in the NIST ThermoML archive (doi:10.1016/j.jct.2013.11.001).
Numbers after ± are expanded uncertainties.

Assay: cn = amount concentration of the nth substance listed, in mol/dm3
Settings: 298.15 K, 101 kPa, Liquid, c1 = 0.1; for speed of sound: Sing-around technique in a fixed-path interferometer; for mass density: Vibrating tube method

| speed of sound [m/s] | mass density [kg/m3] | Structure (SMILES) |
| --- | --- | --- |
| 1502 ± 1.2 | 998.575 ± 0.11 | CCCCCCCCCCCC[N+](C)(C)C.[Br-] [dodecyltrimethylammonium bromide] + O |
| 1499.5 ± 1.2 | 998.003 ± 0.11 | CCCCCCCCCCCCCC[N+](C)(C)C.[Br-] [tetradecyltrimethylammonium bromide] + O |
